Measured values reported in patent publication US10597409B2, “Water-soluble triazapyridinophane-based complexing agents and corresponding fluorescent lanthanide complexes” (CISBIO BIOASSAYS, priority 2015, dated 2020).

Assays:
[1] = Photophysical measurements of the lanthanide complexes (absorption, emission, brightness, lifetime); type: physicochemical
[2] = Solubility in H2O (biological and buffer media); type: physicochemical; conditions: for Solubility in H2O: yes/no

Absorption λmax [1] [nm] | Solubility in water (biological and buffer media) [2] | Solubility in H2O [2] | Brightness ε × Φ (H2O) ([1]; in H2O) | Lifetime τH2O ([1]; in H2O) [ms] | SMILES
320 | insoluble in water | no |  |  | COC(=O)COc1ccc(C#Cc2cc3nc(c2)CN(CC(=O)O)Cc2cc(C#Cc4ccc(OCC(=O)OC)cc4)cc(n2)CN(CC(=O)O)Cc2cc(C#Cc4ccc(OCCCN)cc4)cc(n2)CN(CC(=O)O)C3)cc1 [Complex 62]
328 | insoluble in water | no |  |  | COC(=O)COc1cc(OC)c(-c2cc3nc(c2)CN(CC(=O)O)Cc2cc(-c4c(OC)cc(OCC(=O)OC)cc4OC)cc(n2)CN(CC(=O)O)Cc2cc(-c4ccc(OCCCN)cc4)cc(n2)CN(CC(=O)O)C3)c(OC)c1 [Complex 63]
267 | soluble in water | yes | 564 | 0.78 | O=C(O)CN1Cc2cccc(n2)CN(CC(=O)O)Cc2cccc(n2)CN(CC(=O)O)Cc2cccc(n2)C1 [Pyridinophane]
